Four compounds from article PMC12203697, “Bioactive constituents from the edible seaweed Halymenia hawaiiana (Rhodophyta)” (Pharmaceutical Biology, 2025) can be followed below.

≈ marks a conversion by molar mass, not a printed value. Read-outs that look alike come from different tables or passages of the source.

One series concerns S. aureus CART817. Put plainly: Antibacterial MIC, broth microdilution with resazurin. The class given is cell-based. The following applies: Staphylococcus aureus; S. aureus CART817, Gram-positive; read-out: MIC. The protocol: (§1) The minimum inhibitory concentrations (MICs) were determined using a two-fold serial dilution method with MHB following the recommendations of the Clinical and Laboratory Standards Institute (CLSI [2012]; Elshikh et al. [2016]). In brief, serial two-fold dilutions of the samples in DMSO were mixed with MHB in a 96-well microplate. Then, 50 µL of bacteria suspension was added to each well, resulting in a final concentration of 1 × 10^4 colony-forming units/well. The plates were incubated at 35–37 °C for 18–24 hr. After incubation, 10 µL of 0.18% resazurin (Cat. No. R7017, Sigma-Aldrich, USA) was added to each well (Elshikh et al. [2016]). The MIC was assessed within 2–3 hr after the addition of resazurin. All antimicrobial assays were performed in triplicate, using vancomycin (Cat. No. SBR00001, Sigma-Aldrich, USA) and gentamicin (Cat. No. G1397, Sigma-Aldrich, USA) as standard controls.
For orientation: Broth dilution looks for growth in wells or tubes with falling amounts of substance.

In another series the test system is S. aureus 8325-4. The series is described as above. The following applies: Staphylococcus aureus, 83254; S. aureus 8325-4, Gram-positive; read-out: MIC. It is filed as cell-based.
Text: (§2) Methicillin-resistant Staphylococcus aureus (MRSA), methicillin-susceptible S. aureus (MSSA), and Gram-negative clinical isolates of bacteria [Escherichia coli (9637) and Serratia marcescens ATCC 13880] were used for this study. […] MSSA HBP10, MSSA LUU7, MSSA R113, S. aureus ONE9, and MSSA POB2 were isolated in Hawaiʻi (Gerken et al. [2021]). Mueller Hinton Broth (MHB, GTIN:00382902979630, Becton, Dickinson and Company, Franklin Lakes, NJ, USA) and Mueller Hinton Agar (MHA, GTIN:00382902252504, Becton, Dickinson and Company, Franklin Lakes, NJ, USA,) were used for bacterial inoculation. MRSA was a pathogen strain causing hospital-acquired infections in 1982. This strain easily acquires resistance to antibiotics, such as vancomycin. MSSA strains isolated from the Island of Hawaiʻi included: Honolʻii Beach Park (HBP10) carry the genes erm(C), aph(3′)-III, and mecA, which provide resistance to macrolide, aminoglycoside, and beta-lactam antibiotics, respectively; Wailuku River (LUU7) which contains the blaZ gene (beta-lactam resistance) (Gerken et al. [2021]). Richardson’s Beach Park (R113) and Onekahakaha (ONE9) which is known for its virulence factors (hlgA, hlgB, hlgC, lukD, and lukE).
as §1

A further series deals with MSSA LUU7. Described as above. It is filed as cell-based. The following applies: Staphylococcus aureus; MSSA LUU7, Gram-positive; read-out: MIC.
Text: as §2, §1

Another series deals with MRSA USA300. Described as above. It is filed as cell-based. The note with it: Staphylococcus aureus; MRSA USA300, Gram-positive; read-out: MIC.
Text: as §2, §1

The subject of another series is S. aureus ONE9. Described as above. The class given is cell-based. The note with it: Staphylococcus aureus; S. aureus ONE9, Gram-positive; read-out: MIC.
Text: as §2, §1

The next series concerns E. coli. Described as above. The class given is cell-based. The note with it: Escherichia coli, Gram-negative.
Text: as §2, §1

The test system of another series is MSSA R113. The series is described as above. The class given is cell-based. The following applies: Staphylococcus aureus; MSSA R113, Gram-positive; read-out: MIC.
Text: as §2, §1

The test system of another series is S. marcescent. The series is described as above. It is filed as cell-based, Serratia marcescens. The following applies: Serratia marcescens, Gram-negative, read-out: MIC.
Text: as §2, §1

Series [1] concerns A549 human lung carcinoma epithelial cells. Put plainly: SRB cytotoxicity assay, A549 cells. The note with it: for Selectivity Index (SI): A549 (cancerous) versus NIH/3T3 (non-cancerous), SRB 72 h; for IC50: Homo sapiens, A549, 72 h, read-out: IC50, cytotoxicity against A549 cells. As to the method: After incubation, cells were fixed with trichloroacetic acid (Cat. No. T4885, Sigma-Aldrich, USA), stained with SRB (Cat. No. S9012, Sigma-Aldrich, USA), and the absorbance was measured at 515 nm. Percent cell death was calculated using the following equation: % Cell death=(ODc−OD0)‐(ODs−OD0)/(ODc−OD0)×100
(§3) OD0 = Optical density of cells before treatment (baseline reading).
ODC = Optical density of untreated control cells after 72 h.
ODS = Optical density of cells treated with the test sample after 72 h.
Non-linear regression analysis was performed using GraphPad Prism to calculate the IC50 value. This value reflects the concentration needed to inhibit cell growth by 50%.
All data are presented as mean ± standard error of the mean (SEM) and were collected from three separate experiments. Statistical analyses were conducted using Student’s t-test or ANOVA, followed by Tukey’s multiple comparisons test. Significance is indicated by *p < 0.05, **p < 0.01, and ***p < 0.001.

A short description of series [2]: SRB cytotoxicity assay, NIH/3T3 cells. It is filed as cell-based, murine. The following applies: mouse, NIH/3T3 fibroblasts (non-tumorigenic).
Text: as §3
For orientation: The SRB assay estimates cell density from bound dye.

Series [3] concerns ROS/RNS generation in RAW 264.7 cells. Put plainly: Intracellular ROS/RNS levels in LPS-induced RAW 264.7 cells (H2DCF-DA). It is filed as cell-based. The following applies: Mus musculus. The protocol: To measure the formation of intracellular ROS and RNS, we utilized the fluorogenic dye 2′,7′-dichlorodihydrofluorescein diacetate (Cat. No. 4091-99-0, H2DCF-DA, Abcam, Boston, MA, USA). This dye detects hydrogen peroxide, peroxyl radicals, and peroxynitrite anions (Kwon et al. [2019]). In brief, RAW 264.7 cells were seeded into a black 96-well plate (Cat. No. 165305, Thermo Fisher, USA) at 4 × 10^4 cells per well and incubated for 24 hr at 37 °C in 5% CO2. Afterward, the cells were treated with or without a sample for 4 hr before adding 1 μg/mL LPS (Cat. No. 00-4976-93, Thermo Fisher, USA) for 20 hr. Once this incubation was complete, the cells were washed twice with fetal bovine serum (FBS)-free media (Cat. No. A5256701, Thermo Fisher, USA) and stained with 10 μM H2DCF-DA (Cat. No. D399, Thermo Fisher, USA) in FBS-free media for 30 min at 37 °C, protected from light. Next, the dye-containing media was discarded, and the cells were washed twice with fresh serum-free media. The relative fluorescent intensity of the cells was measured using a fluorescence plate reader (Synergy H1, BioTeK, Winooski, VT, USA) with excitation/emission at 485 nm/535 nm. Curcumin (Cat. No. C1386-5G, Millipore Sigma, Burlington, MA, USA), a natural phenolic compound with antioxidant activity, was used as positive control. All samples were tested in triplicates. A sulforhodamine B (SRB) assay was conducted to assess cellular viability under a similar experimental setup. The final percentage of inhibition of ROS/RNS generation was calibrated using the % of cell viability.

Setting [4] is: RAW264.7, read-out: IC50, inhibition of LPS-induced ROS/RNS generation.

Consider `Nc1ccn([C@H]2C[C@H](O)[C@@H](CO)O2)c(=O)n1` [Compound 1, deoxycytidine], for which the MIC with S. aureus CART817, with S. aureus 8325-4, in the series on MSSA LUU7, in the series on MRSA USA300, in the series with S. aureus ONE9 and with E. coli was 128 µg/mL (≈ 563 µM) in each case. Also, the minimum inhibitory concentration (MIC) in the series with MSSA R113 and in the series on S. marcescent was 128 µg/mL (≈ 563 µM) each time. Also, the “cytotoxic response against A549 cells (in words)” value in [1] (SRB assay, 72 h, highest concentration tested 100 µg/ml) is “no cytotoxic response”.
As to `CC(C)CCC[C@@H](C)[C@H]1CC[C@H]2[C@@H]3CC=C4C[C@@H](O)CC[C@]4(C)[C@H]3CC[C@]12C` [Compound 9, cholesterol], the MIC in the series with S. aureus CART817, in the series with S. aureus 8325-4, in the series on MSSA LUU7, in the series with MRSA USA300, in the series with S. aureus ONE9 and with E. coli was 128 µg/mL (≈ 331 µM) in each case. The minimal inhibitory concentration (MIC) in the series on MSSA R113 and in the series on S. marcescent was 128 µg/mL (≈ 331 µM) in each case. Moreover, the IC50 at 72 h in series [2] was 181 ± 8.04 µM. Also, the IC50 was found to be 55 ± 4.1 µM in [3] (RAW264.7, RAW 264.7 cells, H2DCF-DA dye, LPS 1 μg/mL, read-out: IC50, inhibition of LPS-induced ROS/RNS generation) and 176 ± 5.3 µM in series [1]. In addition, in [1], the “Selectivity Index (SI)” value is listed as 1.03.
Turning to `CC(C)CCC[C@@H](C)[C@H]1CCC2[C@@]34C=C[C@]5(C[C@@H](O)CC[C@]5(C)C3CC[C@@]21C)OO4` (stereo partly drawn) [Compound 10, 7-dehydrochoresterol peroxide], the MIC in the series on S. aureus CART817, in the series on S. aureus 8325-4, in the series with MSSA LUU7, with MRSA USA300, in the series with S. aureus ONE9 and with E. coli was 128 µg/mL (≈ 307 µM) in each case. Further, the MIC turned out to be 128 µg/mL (≈ 307 µM) in the series with MSSA R113 and 64 µg/mL (≈ 154 µM) in the series with S. marcescent. In series [2], this compound gave an IC50 at 72 h of 96.6 ± 4.34 µM. In addition, the IC50 in series [3] (setting [4]) was found to be 65 ± 4.8 µM; in series [1] it was 86.1 µM. Further, the “Selectivity Index (SI)” value in series [1] is 1.12.
For the compound `CC(C)CCC[C@@H](C)[C@H]1CCC2[C@]1(C)CC=C1[C@]23C=C[C@]2(C[C@@H](O)CC[C@]12C)OO3` (stereo partly drawn) [Compound 11, (3β-5α-8α)5,8-epidioxycholesta-6,9(1)-diene-3-ol], the MIC in the series with S. aureus CART817, in the series with S. aureus 8325-4, with MSSA LUU7, in the series on MRSA USA300, in the series with S. aureus ONE9 and in the series with E. coli was 128 µg/mL (≈ 309 µM) throughout. In addition, the MIC with MSSA R113 is 128 µg/mL (≈ 309 µM); in the series on S. marcescent, 64 µg/mL (≈ 154 µM). This compound also registered an IC50 at 72 h in [2] of 144 ± 6.15 µM. The IC50 in series [3] (setting [4]) came to 73.7 ± 6.2 µM; in series [1], 137 ± 4.4 µM. Moreover, the “Selectivity Index (SI)” value in series [1] is 1.05.

By MIC is commonly meant the lowest concentration that inhibits growth of the organism.
